Data: patent US20220125051A1, “PRE-HARVEST DESICCATION METHOD” (SYNGENTA CROP PROTECTION AG, priority 2019, published 2022)

Tests used:
Test in all cases: Post-emergence efficacy, Method C
Format in all cases: in vivo
Settings in all cases: 400 g/Ha, evaluated at 21 days, 100=total damage to plant, 0=no damage
[1] = system: Conyza canadensis (ERICA)
Description: (§1) An “instant formulation”, known as the IF50, containing 50 g/L of the “technical” (i.e. unformulated) active ingredient was prepared by dissolving the active ingredient in a mixture of organic solvents and emulsifier, details of which are provided in the table. This IF50 was then mixed with a small, variable amount of acetone to aid dissolution, before addition of a 1% v/v aqueous solution in water of the adjuvant Empicol ESC70 3EO (Sodium lauryl ether sulphate) and 1% v/v Ammonium sulphate, as the aqueous diluent, to form an aqueous spray solution which contains a predetermined concentration of the active ingredient (which varies depending on the application rate of the active ingredient to the plants).
(§2) The composition of the mixture of organic solvents and emulsifier used as a base for the instant formulation was as given above in Table IF.
(§3) This aqueous spray solution was then sprayed onto the plants after about 21 days of cultivation. The plants were grown from seeds sown in standard soil, placed in a glasshouse under controlled conditions (at 24/18° C., day/night; 14 hours light; 65% humidity). After spray application the plants were then grown on in a glasshouse under the same conditions and watered twice daily. The test was evaluated at 21 days (100=total damage to plant; 0=no damage to plant).
(§4) Ipomoea hederacea (IPOHE), Amaranthus palmeri (AMAPA), Lolium perenne (LOLPE), Eleusine indica (ELEIN), Echinochloa crus-gaffi (ECHCG), Conyza canadensis (ERICA)

[2] = system: Ipomoea hederacea (IPOHE)
Description: as §1, §2, §3, §4

[3] = system: Echinochloa crus-gaffi (ECHCG)
Description: as §1, §2, §3, §4

[4] = system: Amaranthus palmeri (AMAPA)
Description: as §1, §2, §3, §4

Eleusine indica (ELEIN) = system: Eleusine indica (ELEIN)
Description: as §1, §2, §3, §4

Lolium perenne (LOLPE) = system: Lolium perenne (LOLPE)
Description: as §1, §2, §3, §4

Row | SMILES | Control of weed species after post-emergence application, ERICA [1] | Control of weed species after post-emergence application, IPOHE [2] | Control of weed species after post-emergence application, ECHCG [3] | Control of weed species after post-emergence application, AMAPA [4] | Control of weed species after post-emergence application, ELEIN (Eleusine indica (ELEIN)) | Control of weed species after post-emergence application, LOLPE (Lolium perenne (LOLPE))
1 | O=S(=O)([O-])C[n+]1ccc(-c2ncccn2)cn1 [Compound A3, (4-pyrimidin-2-ylpyridazin-1-ium-1-yl)methanesulfonate] | 100 | 83 | 13 | 65 | 15 | 25
2 | Cl.O=S(=O)([O-])CC[n+]1ccc(-c2ccncc2)cn1 [Compound A27] | 65 | 90 | 43 | 77 | 80 | 68
